Assay results published in patent US20250171437A1 (Agios Pharmaceuticals,Inc., priority 2022, published 2025).

Target: T1, human PAH with the R408W mutation (A375 R408W cells) (Homo sapiens, UniProt P00439, R408W)
T1 construct: expressed in transfected cells
T1 sequence (P00439 1-452 R408W): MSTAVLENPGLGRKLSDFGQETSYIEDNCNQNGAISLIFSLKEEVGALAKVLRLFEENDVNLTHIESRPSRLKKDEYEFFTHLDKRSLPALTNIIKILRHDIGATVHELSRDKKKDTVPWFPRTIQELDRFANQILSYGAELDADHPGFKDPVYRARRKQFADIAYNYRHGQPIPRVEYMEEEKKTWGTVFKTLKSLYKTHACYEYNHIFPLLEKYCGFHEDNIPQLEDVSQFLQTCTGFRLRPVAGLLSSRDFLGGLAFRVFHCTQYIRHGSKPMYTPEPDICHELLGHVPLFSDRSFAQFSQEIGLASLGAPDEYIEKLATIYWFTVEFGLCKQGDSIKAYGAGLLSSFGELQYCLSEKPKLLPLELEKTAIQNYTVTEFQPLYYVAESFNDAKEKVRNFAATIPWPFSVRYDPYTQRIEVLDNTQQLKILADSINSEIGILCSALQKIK
Assay: Cell Based Phenylalanine Flux Assay
Conditions: A375 cells expressing R408W PAH; 24 hrs with compound, then 20 μM sepiapterin and 800 μM 13C9,15N-Phenylalanine for 4 hours; 13C-Tyrosine by LC-MS; average where tested multiple times
Method: Cells expressing R408W PAH were made by transducing A375 cells with lentivirus encoding human PAH with the R408W mutation in pLVX-Puro, then selecting with puromycin until stable cell lines were generated. A375 R408W cells were seeded into 96 well plates in DMEM+10% FBS at a density of 40,000 cells/well one hour prior to compound addition. Compounds were resuspended in DMSO, and 2-fold serial dilutions were performed to generate a 10-point dose curve. Compounds were added to plated cells in a total volume of 100 μl, and a final DMSO concentration of 0.5%. Each compound was tested in duplicate. Following compound addition, cells were placed in a 5% CO2, 37° C. tissue culture incubator for 24 hrs. After the incubation period, 20 μM sepiapterin and 800 μM 13C9,15N-Phenylalanine were added. After 4 hours, cell media was removed. An aliquot of 10 μl of cell media was combined with 200 μl of extraction buffer (80% acetonitrile/20% H2O) for each well. Determination of ^13C-Tyrosine concentration was assessed by liquid chromatography mass spectrometry.
Specific compounds disclosed herein were tested in the foregoing assay and they were determined to have an AC50 according to the following scores: (A) less than or equal to 0.500 μM, (B) greater than 0.500 and less than […], (C) greater than or equal to 1.000 and less than 5.000 μM, (D) greater than or equal to 5.000 μM, (E) no fit, and (NT) not tested, as shown below. Where a compound was tested multiple times, the average value of the tests is reported.

AC50 [µM] | SMILES
≥ 5 | O=C(CCc1cncs1)N1CCc2[nH]cnc2C1c1nc2c(F)cccc2o1 (stereo not shown)
≥ 5 | O=C(CCc1nccs1)N1CCc2[nH]cnc2C1c1nc2ccc(F)cc2o1 (stereo not shown) [listing 1 of 2 here]
≥ 5 | CC(C)(O)c1cc(C(=O)N2CCc3[nH]cnc3C2c2nc3c(F)cccc3o2)no1 (stereo not shown) [listing 1 of 2 here]
≥ 5 | CC(C)(O)c1nc(C(=O)N2CCc3[nH]cnc3C2c2nc3c(F)cccc3o2)no1 (stereo not shown) [listing 1 of 2 here]
≥ 5 | CC(C)(O)c1cc(C(=O)N2CCc3[nH]cnc3C2c2nc3ccc(F)cc3o2)no1 (stereo not shown) [listing 1 of 2 here]
≥ 5 | CC(C)(O)c1nc(C(=O)N2CCc3[nH]cnc3C2c2nc3ccc(F)cc3o2)no1 (stereo not shown)
≥ 5 | CC(C)(O)c1nc(Br)c(C(=O)N2CCc3[nH]cnc3C2c2nc3cc(F)ccc3o2)s1 (stereo not shown) [listing 1 of 2 here]
1 to 5 | Cn1nc(C(F)F)nc1C(=O)N1CCc2[nH]cnc2C1c1nc2cc(F)ccc2o1 (stereo not shown)
≥ 5 | Cc1nc(C(C)(C)O)oc1C(=O)N1CCc2[nH]cnc2C1c1nc2cc(F)ccc2o1 (stereo not shown) [listing 1 of 2 here]
≥ 5 | CC(C)(O)c1cc(C(=O)N2CCc3[nH]cnc3C2c2nc3cc(F)ccc3o2)sn1 (stereo not shown)
≥ 5 | O=C(c1nncn1C1CC1)N1CCc2[nH]cnc2C1c1nc2cc(F)ccc2o1 (stereo not shown) [listing 1 of 2 here]
≥ 5 | O=C(c1cnco1)N1CCc2[nH]cnc2C1c1nc2c(F)cccc2o1 (stereo not shown) [listing 1 of 2 here]
1 to 5 | Cn1cnnc1C(=O)N1CCc2[nH]cnc2C1c1nc2c(F)cccc2o1 (stereo not shown)
≥ 5 | O=C(c1cnco1)N1CCc2[nH]cnc2C1c1nc2c(F)cc(F)cc2o1 (stereo not shown) [listing 1 of 2 here]
≥ 5 | Cc1nc(-c2cnn(C)c2)oc1C(=O)N1CCc2[nH]cnc2C1c1nc2cc(F)ccc2o1 (stereo not shown) [listing 1 of 2 here]
≥ 5 | Cc1nc(-c2cnn(C)c2)sc1C(=O)N1CCc2[nH]cnc2C1c1nc2cc(F)ccc2o1 (stereo not shown) [listing 1 of 2 here]
≥ 5 | Cc1nnc(C(=O)N2CCc3[nH]cnc3C2c2nc3cc(F)ccc3o2)o1 (stereo not shown) [listing 1 of 2 here]
≥ 5 | Cn1ncnc1C(=O)N1CCc2[nH]cnc2C1c1nc2ccc(F)cc2o1 (stereo not shown) [listing 1 of 2 here]
≥ 5 | Cn1nc(C(F)(F)F)nc1C(=O)N1CCc2[nH]cnc2C1c1nc2ccc(F)cc2o1 (stereo not shown) [listing 1 of 2 here]
≥ 5 | O=C(c1cnco1)N1CCc2[nH]cnc2C1c1nc2ccc(F)cc2o1 (stereo not shown) [listing 1 of 2 here]
≥ 5 | Cn1cnnc1C(=O)N1CCc2[nH]cnc2C1c1nc2ccc(F)cc2o1 (stereo not shown) [listing 1 of 2 here]

AC50 [µM] | SMILES
≥ 5 | COCc1ccc2c(C(=O)N3CCc4[nH]cnc4C3c3nc4ccc(F)cc4o3)cnn2c1 (stereo not shown)
≥ 5 | CN(C)Cc1ccc2c(C(=O)N3CCc4[nH]cnc4C3c3nc4cc(F)ccc4o3)cnn2c1 (stereo not shown) [listing 1 of 2 here]
1 to 5 | O=C(CCc1cnco1)N1CCc2[nH]cnc2C1c1nc2c(F)cccc2o1 (stereo not shown)
1 to 5 | O=C(Cc1cnco1)N1CCc2[nH]cnc2C1c1nc2cc(F)ccc2o1 (stereo not shown)
1 to 5 | O=C(CCc1cncs1)N1CCc2[nH]cnc2C1c1nc2cc(F)ccc2o1 (stereo not shown)
1 to 5 | O=C(CCc1cnco1)N1CCc2[nH]cnc2C1c1nc2cc(F)ccc2o1 (stereo not shown)
1 to 5 | O=C(Cc1cnn2ccccc12)N1CCc2[nH]cnc2C1c1nc2cc(F)ccc2o1 (stereo not shown)
1 to 5 | O=C(CCc1ncco1)N1CCc2[nH]cnc2C1c1nc2cc(F)ccc2o1 (stereo not shown)
1 to 5 | O=C(CCc1nccs1)N1CCc2[nH]cnc2C1c1nc2cc(F)ccc2o1 (stereo not shown)
1 to 5 | O=C(CCc1ncco1)N1CCc2[nH]cnc2C1c1nc2ccc(F)cc2o1 (stereo not shown)
1 to 5 | O=C(CCc1cncs1)N1CCc2[nH]cnc2C1c1nc2ccc(F)cc2o1 (stereo not shown)
1 to 5 | O=C(CCc1nccs1)N1CCc2[nH]cnc2C1c1nc2ccc(F)cc2o1 (stereo not shown) [listing 2 of 2 here]
1 to 5 | O=C(CCc1cnco1)N1CCc2[nH]cnc2C1c1nc2ccc(F)cc2o1 (stereo not shown)
1 to 5 | O=C(CCc1cnco1)N1CCc2[nH]cnc2C1c1nc2cccc(F)c2o1 (stereo not shown)
1 to 5 | CC(C)(O)c1nc(C(=O)N2CCc3[nH]cnc3C2c2nc3c(F)cccc3o2)no1 (stereo not shown) [listing 2 of 2 here]
1 to 5 | CC(C)(O)c1cc(C(=O)N2CCc3[nH]cnc3C2c2nc3c(F)cccc3o2)no1 (stereo not shown) [listing 2 of 2 here]
≥ 5 | CC(C)(O)c1nc(C(=O)N2CCc3[nH]cnc3C2c2nc3cc(F)ccc3o2)no1 (stereo not shown)
1 to 5 | CC(C)(O)c1cc(C(=O)N2CCc3[nH]cnc3C2c2nc3ccc(F)cc3o2)no1 (stereo not shown) [listing 2 of 2 here]
1 to 5 | CC(C)(O)c1cc(C(=O)N2CCc3[nH]cnc3C2c2nc3cccc(F)c3o2)no1 (stereo not shown)
1 to 5 | CC(C)(O)c1nc(C(F)F)c(C(=O)N2CCc3[nH]cnc3C2c2nc3cc(F)ccc3o2)s1 (stereo not shown)
1 to 5 | CC(C)(O)c1nc(Br)c(C(=O)N2CCc3[nH]cnc3C2c2nc3cc(F)ccc3o2)s1 (stereo not shown) [listing 2 of 2 here]

AC50 [µM] | SMILES
1 to 5 | Cn1nc(C(F)F)nc1C(=O)N1CCc2[nH]cnc2C1c1nc2c(F)cccc2o1 (stereo not shown)
1 to 5 | Cn1nc(C(F)F)nc1C(=O)N1CCc2[nH]cnc2C1c1nc2ccc(F)cc2o1 (stereo not shown)
1 to 5 | CC(C)(O)c1cc(C(=O)N2CCc3[nH]cnc3C2c2nc3c(F)cccc3o2)on1 (stereo not shown)
≥ 5 | CC(C)(O)c1noc(C(=O)N2CCc3[nH]cnc3C2c2nc3c(F)cccc3o2)n1 (stereo not shown)
1 to 5 | CC(C)(O)c1ncc(C(=O)N2CCc3[nH]cnc3C2c2nc3c(F)cc(F)cc3o2)o1 (stereo not shown)
1 to 5 | CC(C)(O)c1ncc(C(=O)N2CCc3[nH]cnc3C2c2nc3c(F)ccc(F)c3o2)o1 (stereo not shown)
1 to 5 | Cc1nc(C(C)(C)O)oc1C(=O)N1CCc2[nH]cnc2C1c1nc2cc(F)ccc2o1 (stereo not shown) [listing 2 of 2 here]
≥ 5 | CC(C)(O)c1noc(C(=O)N2CCc3[nH]cnc3C2c2nc3cc(F)ccc3o2)n1 (stereo not shown)
1 to 5 | CC(C)(O)c1nc(C(F)F)c(C(=O)N2CCc3[nH]cnc3C2c2nc3cc(F)c(F)cc3o2)o1 (stereo not shown)
≥ 5 | CC(C)(O)c1noc(C(=O)N2CCc3[nH]cnc3C2c2nc3ccc(F)cc3o2)n1 (stereo not shown)
1 to 5 | CC(C)(O)c1noc(C(=O)N2CCc3[nH]cnc3C2c2nc3cccc(F)c3o2)n1 (stereo not shown)
1 to 5 | CC(C)(O)c1cc(C(=O)N2CCc3[nH]cnc3C2c2nc3cccc(F)c3o2)on1 (stereo not shown)
1 to 5 | O=C(c1nncn1C1CC1)N1CCc2[nH]cnc2C1c1nc2ccc(F)cc2o1 (stereo not shown)
1 to 5 | O=C(c1nncn1C1CC1)N1CCc2[nH]cnc2C1c1nc2cccc(F)c2o1 (stereo not shown)
1 to 5 | O=C(c1nncn1C1CC1)N1CCc2[nH]cnc2C1c1nc2cc(F)ccc2o1 (stereo not shown) [listing 2 of 2 here]
1 to 5 | O=C(c1nncn1C1CC1)N1CCc2[nH]cnc2C1c1nc2c(F)cccc2o1 (stereo not shown)
1 to 5 | Cn1ncnc1C(=O)N1CCc2[nH]cnc2C1c1nc2c(F)cccc2o1 (stereo not shown)
1 to 5 | Cn1nc(C(F)(F)F)nc1C(=O)N1CCc2[nH]cnc2C1c1nc2c(F)cccc2o1 (stereo not shown)
1 to 5 | O=C(c1cnco1)N1CCc2[nH]cnc2C1c1nc2c(F)cccc2o1 (stereo not shown) [listing 2 of 2 here]
1 to 5 | O=C(c1nnc(-c2cn[nH]c2)o1)N1CCc2[nH]cnc2C1c1nc2c(F)cccc2o1 (stereo not shown)
1 to 5 | O=C(c1cnco1)N1CCc2[nH]cnc2C1c1nc2c(F)cc(F)cc2o1 (stereo not shown) [listing 2 of 2 here]

AC50 [µM] | SMILES
1 to 5 | Cc1nc(-c2cnn(C)c2)sc1C(=O)N1CCc2[nH]cnc2C1c1nc2cc(F)ccc2o1 (stereo not shown) [listing 2 of 2 here]
1 to 5 | Cc1nc(-c2cnn(C)c2)oc1C(=O)N1CCc2[nH]cnc2C1c1nc2cc(F)ccc2o1 (stereo not shown) [listing 2 of 2 here]
≥ 5 | Cc1nc(-c2ccccn2)sc1C(=O)N1CCc2[nH]cnc2C1c1nc2cc(F)ccc2o1 (stereo not shown)
1 to 5 | Cn1cnnc1C(=O)N1CCc2[nH]cnc2C1c1nc2cc(F)ccc2o1 (stereo not shown)
1 to 5 | O=C(c1nnc(-c2ccncc2)o1)N1CCc2[nH]cnc2C1c1nc2cc(F)ccc2o1 (stereo not shown)
1 to 5 | Cc1nnc(C(=O)N2CCc3[nH]cnc3C2c2nc3cc(F)ccc3o2)o1 (stereo not shown) [listing 2 of 2 here]
≥ 5 | Fc1ccc2oc(C3c4nc[nH]c4CCN3Cc3cnco3)nc2c1 (stereo not shown)
1 to 5 | Cn1ncnc1C(=O)N1CCc2[nH]cnc2C1c1nc2ccc(F)cc2o1 (stereo not shown) [listing 2 of 2 here]
1 to 5 | Cn1nc(C(F)(F)F)nc1C(=O)N1CCc2[nH]cnc2C1c1nc2ccc(F)cc2o1 (stereo not shown) [listing 2 of 2 here]
1 to 5 | O=C(c1cnco1)N1CCc2[nH]cnc2C1c1nc2ccc(F)cc2o1 (stereo not shown) [listing 2 of 2 here]
1 to 5 | Cn1cnnc1C(=O)N1CCc2[nH]cnc2C1c1nc2ccc(F)cc2o1 (stereo not shown) [listing 2 of 2 here]
1 to 5 | O=C(c1nnc(-c2cn[nH]c2)o1)N1CCc2[nH]cnc2C1c1nc2ccc(F)cc2o1 (stereo not shown)
1 to 5 | O=C(c1nnc(-c2ccn[nH]2)o1)N1CCc2[nH]cnc2C1c1nc2ccc(F)cc2o1 (stereo not shown)
1 to 5 | Cc1ccc2nc(C3c4nc[nH]c4CCN3C(=O)c3nnc(-c4cn[nH]c4)o3)oc2c1 (stereo not shown)
1 to 5 | Cn1ncnc1C(=O)N1CCc2[nH]cnc2C1c1nc2cccc(F)c2o1 (stereo not shown)
1 to 5 | Cn1cnnc1C(=O)N1CCc2[nH]cnc2C1c1nc2cccc(F)c2o1 (stereo not shown)
1 to 5 | CN(C)Cc1ccc2c(C(=O)N3CCc4[nH]cnc4C3c3nc4cc(F)ccc4o3)cnn2c1 (stereo not shown) [listing 2 of 2 here]
1 to 5 | CC(C)(O)c1nc(C(F)F)c(C(=O)N2CC3(CC3)c3[nH]cnc3C2c2nc3cc(F)ccc3o2)o1 (stereo not shown)

SMILES | AC50 [µM]
CC(C)(O)c1cc(C(=O)N2CCc3[nH]cnc3C2c2nc3ccc(F)cc3o2)on1 (stereo not shown) | 1 to 5
